{"source": "paper PMC3582512", "about": "“Application of a Novel Microtitre Plate-Based Assay for the Discovery of New Inhibitors of DNA Gyrase and DNA Topoisomerase VI” (PLoS ONE, 2013)", "key": {"E. coli DNA gyrase [1]": {"target": "T1, E. coli DNA gyrase (Escherichia coli, UniProt P0AES4+P0AES6)", "T1 construct": "made in house", "T1 sequence (P0AES4 whole entry, one chain of several)": "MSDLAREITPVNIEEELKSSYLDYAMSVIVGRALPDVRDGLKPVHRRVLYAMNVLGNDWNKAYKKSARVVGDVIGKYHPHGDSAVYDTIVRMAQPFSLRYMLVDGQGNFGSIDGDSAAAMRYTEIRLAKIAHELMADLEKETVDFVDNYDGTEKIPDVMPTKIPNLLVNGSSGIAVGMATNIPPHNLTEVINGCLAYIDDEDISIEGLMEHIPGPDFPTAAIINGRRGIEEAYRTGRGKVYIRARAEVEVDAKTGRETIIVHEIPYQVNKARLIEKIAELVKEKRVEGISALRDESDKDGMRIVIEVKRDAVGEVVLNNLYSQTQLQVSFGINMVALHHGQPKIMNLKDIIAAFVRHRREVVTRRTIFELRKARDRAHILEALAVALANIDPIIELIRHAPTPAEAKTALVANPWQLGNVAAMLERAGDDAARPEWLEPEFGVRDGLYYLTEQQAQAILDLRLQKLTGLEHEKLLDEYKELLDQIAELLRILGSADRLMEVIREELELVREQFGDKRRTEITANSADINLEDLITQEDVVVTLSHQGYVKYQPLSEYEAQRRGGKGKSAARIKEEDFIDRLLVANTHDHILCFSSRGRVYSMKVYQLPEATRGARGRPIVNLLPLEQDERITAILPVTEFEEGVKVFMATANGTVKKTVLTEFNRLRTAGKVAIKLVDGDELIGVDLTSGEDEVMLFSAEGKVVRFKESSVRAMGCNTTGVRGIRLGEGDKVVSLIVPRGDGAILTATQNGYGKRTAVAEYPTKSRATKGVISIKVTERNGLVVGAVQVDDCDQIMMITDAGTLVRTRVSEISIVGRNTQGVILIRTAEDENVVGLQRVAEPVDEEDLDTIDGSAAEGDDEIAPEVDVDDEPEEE", "test": "Agarose gel-based DNA supercoiling assay", "type": "biochemical", "method": "(§1) The agarose gel-based assay was conducted as previously described, [44], [62]. In brief, topoisomerases were incubated with 0.5 µg of plasmid and the desired concentration of compound for 30 min at 37°C (for DNA gyrase and M. mazei topo VI) or 5 min at 75°C (for S. shibatae topo VI), in a total volume of 30 µL. […] Reactions were stopped by the addition of a loading buffer containing EDTA and the drug extracted by vortexing with either chloroform or aqueous butanol as required. In the case of M. mazei topo VI, it was necessary to include SDS in the loading buffer, at a final concentration of 1%. Samples were loaded onto a 1% agarose gel, run for the appropriate length of time and stained with ethidium bromide before visualisation on a UV transilluminator."}, "E. coli DNA gyrase [2]": {"target": "T1, E. coli DNA gyrase", "test": "Gel-based gyrase-mediated DNA cleavage assay", "type": "biochemical", "settings": "absence of ATP, concentration not given", "method": "(§2) Assays to detect the stabilisation of cleavage complexes were identical to the protocol for topoisomerase activity detailed above, except as follows. Cleavage experiments with DNA gyrase were carried out in the absence of ATP and spermidine and 30 µL reactions were stopped with 3 µL 10% SDS and incubated with 3 µL 1 mg/mL proteinase K solution at 37°C for 1 h. For cleavage complex protection assays with suramin, the reaction buffer was modified to contain 4 mM CaCl2 rather than MgCl2."}, "M. smegmatis mc^2155": {"system": "M. smegmatis mc^2155", "test": "Bacterial growth inhibition and colony counting", "type": "cell-based, Mycobacterium smegmatis", "method": "(§3) For E. coli work, 10 mL cultures of E. coli MG1655 or NR698 were grown overnight at 37°C in LB medium. A 100 µL sample was then added to 10 mL of LB medium containing the desired concentration of compound. The culture was then allowed to grow at 37°C for 5 h and its OD600 measured every hour. For M. smegmatis, a 50 mL culture was grown for 48 h in Middlebrooks 7H11 medium at 37°C. A 100 µL sample was then added to 10 mL of Middlebrooks 7H11 containing the desired concentration of compound. The culture was then allowed to grow at 37°C for 9 h and its OD600 measured every three hours. For colony counting experiments M. smegmatis was grown for 48 h in 50 mL of Middlebrooks 7H9 medium at 37°C. A 100 µL sample was then added to 10 mL of Middlebrooks 7H9 medium containing the desired concentration test compound and allowed to grow at 37°C overnight. After 16 h, 20 µL samples were taken from these cultures and diluted 1 in 10,000 with Middlebrooks 7H9 medium. Petri dishes containing Middlebrooks 7H11 agar were prepared and 100 µL of each diluted culture was spread out. The plates were subsequently stored at 4°C. This was repeated every three hours for six hours, after which the plates were transferred to 37°C for 48 h. The numbers of colonies for each time point were counted manually."}, "E. coli DNA gyrase [3]": {"target": "T1, E. coli DNA gyrase", "test": "Protection from Ca2+-induced, gyrase-mediated DNA cleavage", "type": "biochemical", "settings": "80 µM, 4 mM calcium chloride", "method": "as §2"}, "M. mazei topo VI [4]": {"target": "T2, M. mazei topo VI (Methanosarcina mazei, UniProt Q8PUB7+Q8PUB8)", "T2 construct": "His tag; made in house", "T2 sequence (Q8PUB8 whole entry)": "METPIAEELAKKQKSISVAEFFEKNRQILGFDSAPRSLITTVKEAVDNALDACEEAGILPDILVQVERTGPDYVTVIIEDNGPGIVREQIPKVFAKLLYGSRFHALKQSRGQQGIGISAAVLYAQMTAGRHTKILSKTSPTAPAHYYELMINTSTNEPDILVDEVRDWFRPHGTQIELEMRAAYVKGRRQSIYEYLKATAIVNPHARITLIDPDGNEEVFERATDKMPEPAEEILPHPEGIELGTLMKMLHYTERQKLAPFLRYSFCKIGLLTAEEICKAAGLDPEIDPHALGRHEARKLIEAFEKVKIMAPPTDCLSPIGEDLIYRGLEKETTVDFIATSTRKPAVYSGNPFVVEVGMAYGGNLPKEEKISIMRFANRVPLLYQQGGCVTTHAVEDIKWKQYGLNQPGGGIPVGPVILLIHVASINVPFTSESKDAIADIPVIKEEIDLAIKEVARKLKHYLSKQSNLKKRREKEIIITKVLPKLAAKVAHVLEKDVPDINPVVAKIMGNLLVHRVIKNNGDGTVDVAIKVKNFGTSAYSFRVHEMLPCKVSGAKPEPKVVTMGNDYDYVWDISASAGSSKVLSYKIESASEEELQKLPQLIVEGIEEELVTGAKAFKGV", "T2 sequence (Q8PUB7 whole entry)": "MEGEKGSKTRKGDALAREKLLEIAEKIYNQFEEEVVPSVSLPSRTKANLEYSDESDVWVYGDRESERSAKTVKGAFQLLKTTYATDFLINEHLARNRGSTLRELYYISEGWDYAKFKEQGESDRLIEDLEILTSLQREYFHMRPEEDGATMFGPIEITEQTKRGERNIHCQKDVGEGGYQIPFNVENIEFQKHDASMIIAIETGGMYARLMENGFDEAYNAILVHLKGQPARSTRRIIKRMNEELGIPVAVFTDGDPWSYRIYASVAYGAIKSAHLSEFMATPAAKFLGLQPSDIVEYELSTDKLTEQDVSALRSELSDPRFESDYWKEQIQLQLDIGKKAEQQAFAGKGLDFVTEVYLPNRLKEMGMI", "test": "Agarose gel-based DNA relaxation assay", "type": "biochemical", "settings": "for IC50: gel relaxation assay, 1 unit (50 nM) topo VI, read-out: Approx. IC50 against M. mazei topo VI", "method": "as §1"}, "E. coli strain NR698": {"system": "E. coli strain NR698", "test": "Bacterial growth inhibition, membrane-permeable strain", "type": "cell-based, Escherichia coli", "settings": "liquid and solid media", "method": "as §3"}, "E. coli DNA gyrase [5]": {"target": "T1, E. coli DNA gyrase", "test": "Native gel-shift assay, gyrase binding to 147 bp DNA fragment", "settings": "100 µM", "method": "(§4) In order to test the effects of hit compounds upon DNA binding by topoisomerases, samples of enzyme and drug were prepared under the following conditions in a final volume of 10 μL: 1 nM 147 bp linear fragment of DNA derived from pBR322, [82] 50 mM Tris•HCl (pH 7.5), 100 mM KCl, 5 mM MgCl2, 2 mM DTT, 10% w/v glycerol. Samples were incubated for 30 min at room temperature before being run on a 5% (29:1) Protogel acrylamide (National Diagnostics) gel in 90 mM Tris·Borate, 5 mM MgCl2 at 150 V for 45 min. The DNA was stained by soaking in 2 µg/mL ethidium bromide for 10 min and visualised under UV light."}, "M. mazei topo VI [6]": {"target": "T2, M. mazei topo VI", "test": "Native gel shift assay, topo VI binding to 147 bp DNA fragment", "method": "as §4"}, "E. coli MG1655": {"system": "E. coli MG1655", "test": "Bacterial growth inhibition", "type": "cell-based, Escherichia coli", "settings": "liquid and solid media", "method": "as §3"}, "S. shibatae topo VI": {"target": "T3, S. shibatae topo VI (Saccharolobus shibatae, UniProt O05207+O05208)", "T3 construct": "gift from Danielle Gadelle (University of Paris XI, Orsay)", "T3 sequence (O05207 whole entry)": "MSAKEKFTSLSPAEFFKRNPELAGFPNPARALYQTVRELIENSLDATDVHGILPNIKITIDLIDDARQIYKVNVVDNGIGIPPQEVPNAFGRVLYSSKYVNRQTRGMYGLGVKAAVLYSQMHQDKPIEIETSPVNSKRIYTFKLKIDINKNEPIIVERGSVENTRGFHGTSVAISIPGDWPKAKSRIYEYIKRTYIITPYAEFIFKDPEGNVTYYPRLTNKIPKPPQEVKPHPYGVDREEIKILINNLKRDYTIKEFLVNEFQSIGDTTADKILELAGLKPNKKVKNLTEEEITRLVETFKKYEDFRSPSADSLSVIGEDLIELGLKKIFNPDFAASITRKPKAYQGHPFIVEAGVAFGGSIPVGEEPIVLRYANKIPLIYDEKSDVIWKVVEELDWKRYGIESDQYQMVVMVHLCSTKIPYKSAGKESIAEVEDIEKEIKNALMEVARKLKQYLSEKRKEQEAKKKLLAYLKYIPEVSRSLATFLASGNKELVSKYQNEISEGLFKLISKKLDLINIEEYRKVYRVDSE", "T3 sequence (O05208 whole entry)": "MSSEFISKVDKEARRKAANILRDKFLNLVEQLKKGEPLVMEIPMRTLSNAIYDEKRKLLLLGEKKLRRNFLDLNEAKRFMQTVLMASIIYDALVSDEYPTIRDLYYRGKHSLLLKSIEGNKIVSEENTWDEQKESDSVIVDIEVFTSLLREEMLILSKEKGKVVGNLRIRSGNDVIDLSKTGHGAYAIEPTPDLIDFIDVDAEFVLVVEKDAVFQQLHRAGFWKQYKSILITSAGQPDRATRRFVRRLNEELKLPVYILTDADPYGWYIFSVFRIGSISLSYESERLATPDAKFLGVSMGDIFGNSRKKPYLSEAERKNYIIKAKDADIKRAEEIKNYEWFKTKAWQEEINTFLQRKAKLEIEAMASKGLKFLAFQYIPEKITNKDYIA", "test": "Gel-based relaxation assay with S. shibatae topo VI", "type": "biochemical, Sulfolobus shibatae", "method": "as §1"}, "[7]": {"system": "Arabidopsis thaliana hypocotyl cells", "test": "Cryo-SEM of Arabidopsis hypocotyls (cell size)", "type": "in vivo", "settings": "40 µM, 5 days in the dark; control ∼300 µm", "description": "Five day old hypocotyls grown on media containing various concentrations of compound were frozen in nitrogen slush and loaded into a Philips XL30 SEM with a cryo stage installed. Samples were sputter coated with platinum and transferred into the microscope chamber for image collection."}, "[8]": {"system": "Arabidopsis thaliana columbia (Col-0)", "test": "Arabidopsis hypocotyl extension assay and plant growth", "type": "in vivo", "method": "The hypocotyl extension assay was conducted as previously described, [66]. MS Salts medium (containing micro and macro elements including vitamins, pH 5.8) was supplemented with 1 g/L sucrose and 0.7 g/L phytagel (Sigma) before autoclaving. After the medium cooled to ∼50°C it was divided into 50 mL aliquots and compounds to be tested (or an equivalent amount of appropriate solvent for control plates) then added at the desired concentration under aseptic conditions. The media were then poured into separate 100 mm square Petri dishes and allowed to cool to room temperature in a laminar flow hood. Arabidopsis thaliana columbia (Col-0) seeds were surface sterilised with 5% bleach for 10 min immediately prior to use. The seeds were then washed three times with sterile water under a laminar flow hood. After surface sterilisation the seeds were planted in a grid pattern (32 seeds per dish) and the dishes sealed with surgical tape. The plates were transferred to 4°C and left for 64 h in the dark to vernalise, after which they were transferred to a 22°C growth cabinet. After 2 h of light exposure the plates were stacked vertically in the dark at 22°C to allow for hypocotyl extension along the agar surface. After 4–5 days the hypocotyls were observed using an optical microscope and their length measured. For experiments where the plants were allowed to form rosettes, the Arabidopsis seedlings were grown horizontally under a 16 h day in a 22°C growth cabinet for the indicated number of weeks."}, "M. mazei topo VI [9]": {"target": "T2, M. mazei topo VI", "test": "Pyruvate kinase-linked ATPase assay", "type": "biochemical", "settings": "data not shown", "method": "ATPase assays were performed essentially as described previously except they were adapted to a microplate format using clear, colourless 96-well Microtitre plates (Pro-bind™, Becton Dickinson). Reactions were carried out in 100 µL of the established reaction buffer for either DNA gyrase of M. mazei topo VI [36], [62] supplemented with: 800 µM phosphoenolpyruvate (PEP), 400 µM NADH, 1% (vol/vol) PK/LDH (pyruvate kinase-lactate dehydrogenase mixture in 50% (w/v) glycerol,100 mM KCl, 10 mM HEPES (pH 7.0)) and the desired concentration of hit compound. ATP was initially withheld from the reaction. After 5 min incubation at room temperature the reactions were initiated by the addition of ATP and the absorbance at 340 nm was measured over the course of an hour using a Spectra Max Plus absorbance reader (Molecular Devices). Data were processed by omitting the first 10–15 min of collection and normalising the first retained time point. This was done to exclude artifacts observed within this time frame and for ease of comparison of rates. Controls lacking topoisomerase were used to assess the intrinsic ATPase activity of the test compounds."}}, "note": "Entries after “also recorded” stand apart in the source; their conditions may differ.", "data": [{"smiles": "Cc1ccc(C(=O)Nc2ccc(S(=O)(=O)O)c3cc(S(=O)(=O)O)cc(S(=O)(=O)O)c23)cc1NC(=O)c1cccc(NC(=O)Nc2cccc(C(=O)Nc3cc(C(=O)Nc4ccc(S(=O)(=O)O)c5cc(S(=O)(=O)O)cc(S(=O)(=O)O)c45)ccc3C)c2)c1", "note": "[Suramin]", "values": [{"measurement": "Inhibition in gel-based supercoiling assay (hit validation)", "setting": "E. coli DNA gyrase [1]", "result": "displayed inhibition"}, {"measurement": "IC50", "setting": "E. coli DNA gyrase [1]; gel supercoiling assay, 1 unit of gyrase (12 nM), read-out: Approx. IC50 against E. coli DNA gyrase", "result": 80, "unit": "µM"}, {"measurement": "Mechanism (DNA gyrase)", "setting": "E. coli DNA gyrase [1]; summary of this study's mechanistic tests", "result": "Blocks DNA binding"}, {"measurement": "Induction of gyrase-mediated DNA cleavage", "setting": "E. coli DNA gyrase [2]", "result": "did not display any ability to induce cleavage"}, {"measurement": "Antimicrobial activity", "setting": "M. smegmatis mc^2155", "result": "no antimicrobial activity"}, {"measurement": "Protection of DNA from Ca2+-induced cleavage by gyrase", "setting": "E. coli DNA gyrase [3]", "result": "completely protect DNA from cleavage"}, {"measurement": "Inhibition in gel-based relaxation assay (hit validation)", "setting": "M. mazei topo VI [4]", "result": "validated as hits"}, {"measurement": "IC50", "setting": "M. mazei topo VI [4]", "result": 30, "unit": "µM"}, {"measurement": "Mechanism (Topo VI)", "setting": "M. mazei topo VI [4]; summary of mechanistic tests with M. mazei and S. shibatae topo VI", "result": "Blocks DNA binding"}, {"measurement": "Inhibition of growth / antimicrobial activity", "setting": "E. coli strain NR698", "result": "no antimicrobial activity"}, {"measurement": "Effect on gel shift of 147 bp DNA by DNA gyrase", "setting": "E. coli DNA gyrase [5]", "result": "abolishes this shift"}, {"measurement": "Effect on binding of M. mazei topo VI to DNA", "setting": "M. mazei topo VI [6]", "result": "appeared to prevent the binding of topo VI to DNA; also recorded: appeared to prevent G-segment binding"}, {"measurement": "Inhibition of growth / antimicrobial activity", "setting": "E. coli MG1655", "result": "no antimicrobial activity"}, {"measurement": "Inhibition of S. shibatae topo VI", "setting": "S. shibatae topo VI", "result": "did not display any inhibition; also recorded: did not inhibit"}]}, {"smiles": "CCCCCCc1ccc(O)cc1O", "note": "[Hexylresorcinol]", "values": [{"measurement": "Hypocotyl cell size, seedlings with dwarf morphology", "setting": "[7]", "result": "~50", "unit": "µm"}, {"measurement": "Inhibition in gel-based relaxation assay (hit validation)", "setting": "M. mazei topo VI [4]", "result": "validated as hits"}, {"measurement": "IC50", "setting": "M. mazei topo VI [4]", "result": 30, "unit": "µM"}, {"measurement": "Average hypocotyl length", "setting": "[8]; 40 µM", "result": "considerably reduced"}, {"measurement": "Plants able to develop into a rosette", "setting": "[8]; 40 µM, three-week-old plants", "result": "seven of the 32 plants"}, {"measurement": "Average length of seedlings (hypocotyl)", "setting": "[8]; 50 µM, 10 mm in the absence of drug, 5 days in the dark", "result": "approximately 1 mm"}, {"measurement": "Seed germination", "setting": "[8]; 80 µM", "result": "germination was reduced"}, {"measurement": "Seed germination", "setting": "[8]; 100 µM", "result": "completely preventing seed germination; also recorded: no seeds germinated"}, {"measurement": "Number of seeds germinated", "setting": "[8]; up to 50 µM", "result": "remained constant"}, {"measurement": "Inhibition of S. shibatae topo VI", "setting": "S. shibatae topo VI", "result": "did not display any inhibition"}, {"measurement": "Effect on M. mazei topo VI ATPase activity", "setting": "M. mazei topo VI [9]", "result": "appeared to increase the rate of ATP hydrolysis"}, {"measurement": "Effect on M. mazei topo VI ATPase activity", "setting": "M. mazei topo VI [9]; listed as hexylresorcinol", "result": "appears to stimulate hydrolysis of ATP"}]}]}
